Laboratory results as given in patent US20250161287A1, “METHODS, COMPOSITIONS, AND COMBINATIONS FOR PREVENTING OR TREATING CANCER RECURRENCE” (VUJA DE SCIENCES, INC., priority 2022, published 2025).
“Also recorded” adds a separate entry of the source. Read-outs that look alike come from different tables or passages of the source.

Assays:
[1] = test system: MG63.3 OS cell line; experiment: in vitro 3D BME assay with MG63.3 OS cell line; assay type: cell-based, human; conditions: for minimal effective concentration / lowest dose leading to complete inhibition of 3D growth: vs vehicle control, replicates=4; for minimal effective concentration: read-out: lowest dose leading to appreciable inhibition of 3D growth; for activity on 3D BME compared with 2D: MG63.3, 3D BME vs 2D MTT 72 h; for 3D activity and selectivity for ME in a screen of 10 HDAC inhibitors: selectivity = ratio of 3D to 2D % inhibition at the same dose, Class I, Class II, pan-HDAC
Description: 3D basement membrane extract (BME) assay was developed at the NCI Barkan (D. Barkan et al. 2008; Dalit Barkan and Green 2011; Hen and Barkan 2020). BME is purified from Engelbreth-Holm-Swarm (EHS) tumor, primarily made up of laminin, collagen IV, entactin, and heparin sulfate proteoglycans (Cultrex Reduced Growth Factor Basement Membrane Extract, PathClear n.d.), which allows it to more accurately reflect the 3D extracellular environment in the body.
Initially >150 selected therapeutic agents were tested on BME based on the likelihood for either a positive effect or a […] negative effect (as negative controls). […] These therapeutic agents were also tested in dose response (as broad as 1 pM-100 μM) for 2D cytotoxicity (MTT) and the IC50 was calculated. Where required, the hits from the initial screen were also further characterized at additional doses <100 nM in order to further determine the relative selectivity compared to the 2D IC50.
The influence of drug exposure on the metastatic phenotype was assessed in an in vitro assay of ME and escape from dormancy using a 3D BME assay as previously reported, which was adapted for use with OS cells.
Cultrex® PathClear, Reduced Growth Factor Basement Membrane Extract (BME—Bio-Techne, Minneapolis, MN) was added ([…]) to a 96-well plate and allowed to gel by incubating at 37° C. for ≥30 min. Cells were harvested, washed with DMEM (no glucose, no FBS, Gibco, Grand Island, NY) and centrifuged at 1500 g×5 mins. The media was aspirated and the remaining cell pellet flicked for about 10 s to ensure disaggregation.
Cells were diluted in assay media containing 2% BME, resuspended vigorously and 150 μL of the cell suspension was added on top of the gelled 3D BME layer. […] Cell numbers were determined in control vehicle (cells in media+0.1% DMSO), or treated wells and were measured on the indicated days by addition of 20 μL/well of MTS reagent (Cell Titer 96 Aqueous One, Promega, Madison, WI), followed by incubation at 37° C. for 2 h and absorbance measurements at 490 nm via plate reader (Molecular Devices, San Jose CA).
All conditions were conducted in quadruplicate and each experiment was carried out at least 3 separate times. All comparisons were made between treatment and vehicle control at concordant time points. Statistical analyses and non-linear regressions were derived using GraphPad Prism statistical software.

[2] = test system: MG63.3 OS cell line; experiment: 2D growth / cytotoxicity by MTT, MG63.3; conditions: for doses exhibiting cytotoxicity on 2D growth: 72 h
Experimental: The number of viable cells present in 2D culture was determined by MTT as previously reported. Briefly, cells were plated in 96-well plates at 2,000 cells/well and incubated at 37° C. for 24 h. After 24 h, the media was replaced with fresh media containing drugs at the desired concentrations (10 pM-10 μM) and incubated at 37° C. for 72 h. After 72 h, MTT reagent (20 L/well of a 5 mg/mL stock solution in sterile water; Sigma, St. Louis, MO) was added to each well and the plate was incubated at 37° C. for 2 h. DMSO ([…]) was then added to each well to solubilize the formazan crystals.
The resulting absorbance was measured at 490 nm via plate reader (Molecular Devices, San Jose, CA). DMSO (0.1%) was used as vehicle control, while 20 μM rapamycin was used as a positive cell-kill control. The experimental conditions were conducted in triplicate and each experiment was repeated three times. Regression lines and IC50's were calculated using a four-parameter variable slope nonlinear fit in GraphPad Prism.

[3] = Homo sapiens, MG-63.3, MG63.3 on 3D BME
[4] = domatinostat 100-200 nM, MG63.3

CO[C@H]1C[C@@H]2CC[C@@H](C)[C@@](O)(O2)C(=O)C(=O)N2CCCC[C@H]2C(=O)O[C@H]([C@H](C)C[C@@H]2CC[C@@H](OCCO)[C@H](OC)C2)CC(=O)[C@H](C)/C=C(\C)[C@@H](O)[C@@H](OC)C(=O)[C@H](C)C[C@H](C)/C=C/C=C/C=C/1C [everolimus]
minimal effective concentration [1, 3]: 0.01 µM | activity on 3D BME compared with 2D [1]: much stronger activity on 3D BME at similar doses | cytotoxicity on 2D growth [2]: cytotoxicity across all doses tested

O=C(/C=C/c1cccnc1)NCCCCC1CCN(C(=O)c2ccccc2)CC1 [(E)-daporinad]
activity on 3D BME compared with 2D [1]: much stronger activity on 3D BME at significantly lower doses | minimal effective concentration ([1]; MG63.3 on 3D BME): 0.0001 µM | doses exhibiting cytotoxicity on 2D growth ([2]; human): > 0.1 nM

CO[C@H]1/C=C\C=C(/C)C(=O)NC2=CC(=O)C(NCCN(C)C)=C(C[C@@H](C)C[C@H](OC)[C@H](O)[C@@H](C)/C=C(\C)[C@@H]1OC(N)=O)C2=O [alvespimycin]
minimal effective concentration [1, 3]: 0.0125 µM | activity on 3D BME compared with 2D [1]: much stronger activity on 3D BME at significantly lower doses | doses exhibiting cytotoxicity on 2D growth ([2]; MG63.3, MTT, replicates=3): > 25 nM

Cc1[nH]c2ccccc2c1CCNCc1ccc(/C=C/C(=O)NO)cc1 [panobinostat]
minimal effective concentration [1, 3]: 0.04 µM | doses exhibiting cytotoxicity on 2D growth ([2]; human): ≥ 80 nM

O=C(NC[C@H](O)CO)c1ccncc1Nc1ccc(I)cc1F [pimasertib]
lowest dose leading to complete inhibition of 3D growth ([1]; MG63.3 on 3D BME): 100 nM | doses exhibiting cytotoxicity on 2D growth ([2]; human): above 1 nM

COc1ccc(-c2nc(N3CCOCC3)c3sc(CN(C)c4ncc(C(=O)NO)cn4)cc3n2)cn1 [fimepinostat]
3D activity and selectivity for ME in a screen of 10 HDAC inhibitors ([1]; MG63.3): 3D activity and selectivity for ME | lowest dose leading to complete inhibition of 3D growth ([1]; MG63.3 on 3D BME): 5 nM | doses exhibiting cytotoxicity on 2D growth ([2]; human): ≥ 1 nM

CC(C)[C@]12O[C@H]1[C@@H]1O[C@]13[C@]1(O[C@H]1C[C@H]1C4=C(CC[C@@]13C)C(=O)OC4)[C@@H]2OCOP(=O)(O)O [minnelide]
lowest dose leading to complete inhibition of 3D growth ([1]; MG63.3 on 3D BME): 4 nM | doses exhibiting cytotoxicity on 2D growth ([2]; MG63.3, MTT, replicates=3): ≥ 0.781 nM

CCN(CC)Cc1ccc2cc(COC(=O)Nc3ccc(C(=O)NO)cc3)ccc2c1 [givinostat]
minimal effective concentration [1, 3]: 0.3 µM | activity on 3D BME compared with 2D [1]: more active in 3D than in 2D | 3D activity and selectivity for ME in a screen of 10 HDAC inhibitors ([1]; MG63.3): highest 3D activity and selectivity for ME | 3D growth inhibition and selectivity for ME at selected dose ([1]; givinostat 400 nM, quisinostat 10 nM, MG63.3 3D BME): significant 3D growth inhibition and selectivity for ME | doses exhibiting cytotoxicity on 2D growth ([2]; human): ≥ 600 nM

COc1c(C)cnc(Cn2cnc3c(Cl)nc(N)nc32)c1C [BIIB021]
minimal effective concentration [1, 3]: 0.008 µM | activity on 3D BME compared with 2D [1]: much stronger activity on 3D BME at significantly lower doses | doses exhibiting cytotoxicity on 2D growth ([2]; human): > 10 nM

Cn1cc(-c2ccc(S(=O)(=O)n3ccc(/C=C/C(=O)Nc4ccccc4N)c3)cc2)cn1 [domatinostat]
earlier (2 days on, 4 days off) vs later (2 days off, 4 days on) treatment ([1]; FIG. 68, rapamycin 2-16 nM experiment, MG63.3 3D BME): slightly more inhibition than later treatment | minimal effective concentration [1, 3]: 0.1 µM | activity on 3D BME compared with 2D [1]: much stronger activity on 3D BME at similar doses; also recorded: more active in 3D than in 2D | 3D activity and selectivity for ME in a screen of 10 HDAC inhibitors ([1]; MG63.3): highest 3D activity and selectivity for ME | efficacy of domatinostat alone treated for 1 day ([1]; domatinostat 100-200 nM, 1 day on, 5 days off): little to no efficacy | growth inhibition in the 3D BME assay [1, 4]: 20-50% | inhibition of 3D growth relative to vehicle, two schedules ([1]; domatinostat 200-800 nM, Days 3-6 (2 days off, 4 days on) or Days 1-2 (2 days on, 4 days off), P<0.005): significantly inhibition relative to vehicle for both treatment schedules | earlier (2 days on, 4 days off) vs later (2 days off, 4 days on) treatment ([1]; domatinostat 200-800 nM, MG63.3 3D BME): slightly more inhibition than later treatment | re-treatment on Day 3 vs treated once, inhibition of 3D growth ([1]; rapamycin 1 nM, domatinostat 100 & 150 nM, combination, P<0.01 for all except 100 nM domatinostat alone): significantly increased inhibition relative to the conditions only treated with drug once | inhibition in 2D at these doses [2, 4]: no statistically significant inhibition | doses exhibiting cytotoxicity on 2D growth ([2]; human): ≥ 200 nM
